In this test the target is Apoptosis regulator BAX (Homo sapiens, UniProt Q07812). Kind of test: Inhibition of recombinant human BAX expressed in Escherichia coli BL21 (DE3) assessed as inhibition of liposome permeabilization and measured for 2 hrs by fluorescence analysis.
Apoptosis regulator BAX, sequence (Q07812 whole entry): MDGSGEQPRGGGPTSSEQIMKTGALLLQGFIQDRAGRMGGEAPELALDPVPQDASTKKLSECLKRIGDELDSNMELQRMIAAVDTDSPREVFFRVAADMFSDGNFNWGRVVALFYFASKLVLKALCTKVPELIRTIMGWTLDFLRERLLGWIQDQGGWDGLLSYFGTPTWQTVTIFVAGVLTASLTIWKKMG

As for `COCCOCOc1ccc2c(c1)O[C@H](CN)[C@H]2N(Cc1ccc(Br)cc1)C(=O)[C@H](Cc1ccccc1)NC(=O)c1ccccc1`, the IC50 amounted to 6 µM. Next, `COCCOCOc1ccc2c(c1)O[C@H](CN(Cc1ccc(Br)cc1)C(=O)[C@H](Cc1ccccc1)NC(=O)c1ccccc1)[C@H]2N`: 4 µM.

(Values after ChEMBL document CHEMBL5241073, “Pharmacological Targeting of Executioner Proteins: Controlling Life and Death” (J Med Chem, 2021).)
